Entries after “also recorded” stand apart in the source; their conditions may differ.
Tests used:
Type in all cases: cell-based
[1] = test system: human dermal fibroblasts; HDFs; test: Real-time RT-PCR of Sox9 and Aggrican in cartilage induction medium, Example 8; settings: ALK5 inhibitor II 2 μM, Cyclic Pifithrin-α 5 μM, day 18, FIG. 8
Procedure: The concentrations of the compounds are as follows: • Cyclic Pifithrin-α: 5 μM • ALK5 inhibitor II: 2 μM.

[2] = test system: human dermal fibroblasts; HDFs; test: Real-time PCR of AdipoQ, FABP4, PPAR-γ, four inhibitors with Rosiglitazone, Example 50; settings: WA medium added with 1 μM Rosiglitazone and 16 μM compound; day 12
From the text: On day 12, RNA was recovered from the cells and, in the same manner as in Example 47, mRNA of AdipoQ, FABP4 (mature adipocyte marker), and PPAR-γ (preadipocyte marker) was quantified.

[3] = test system: human dermal fibroblasts; HDFs; test: Bodipy staining in WA medium, four inhibitors, Example 48; settings: day 12, FIG. 52
[4] = test system: Human normal skin-derived fibroblasts (HDFs); test: Immunostaining of UCP1, four inhibitors, Example 40; settings: LY2157299 8 μM, SB431542 4 μM, D4476 4 μM, Day 1 to Day 8, day 14, FIG. 44
Procedure: Human normal skin-derived fibroblasts (HDFs) were suspended in a general medium (DMEM added with 10% FBS). […] The adipocyte induction medium is DMEM added with 1 nM T3, 1 μM Rosiglitazone, 0.5 mM 3-isobutyl-1-methylxanthine (IBMX), 0.5 μM dexamethasone, 1 μg/mL Insulin and 10% FBS. Once every 2 days, the culture medium was exchanged with a fresh one, and culturing was performed from Day 1 to Day 8. Thereafter, from Day 9 to Day 14, the cells were cultured in an adipocyte induction medium free of ALK5 inhibitor II, LY2157299, SB431542, D4476. On day 14, the culture medium was removed by suction from each well, and washed with PBS(−). After fixing with 4% para-formaldehyde, the well was washed with PBS (−), Permanent wave Buffer (0.2% Triton-X addition PBS) was added and the well was incubated for 15 min. After washing 3 times with PBS(−), Blocking One was added, and the mixture was incubated at room temperature for 60 min. Anti-UCP-1 antibody (RD MAB6158) was added and the mixture was reacted for 2 hrs at room temperature, and washed 3 times with Wash buffer. CF488-conjugated anti-mouse Ig antibody (Biotum 20014) was added and the mixture was reacted for 2 hrs at room temperature, and washed 3 times with PBS(−). After nuclear staining with SlowFade Gold antifade reagent with DAPI manufactured by Lifetechnology, the cells were photographed with a fluorescence microscope at ×100 magnification.

[5] = test system: Human Epidermal Keratinocyte; NHEK (AD); test: Real-time RT-PCR of UCP1 and CIDEA, keratinocyte to brown adipocyte, Example 43; settings: K-adipocyte induction medium; ALK5 inhibitor II 4 μM or LY2157299 8 μM, Day 1 to Day 8; day 14; FIG. 47
Procedure: Normal human epidermal keratinocyte (Human Epidermal Keratinocyte; NHEK (AD)) were suspended in a serum-free liquid medium for normal human epidermal keratinocyte proliferation (HuMedia-KG2; manufactured by Kurabo).
The K-adipocyte induction medium is HuMedia-KG2 added with 1 nM T3, 1 μM Rosiglitazone, 0.5 mM 3-isobutyl-1-methylxanthine (IBMX), 0.5 μM dexamethasone, and 1 μg/mL Insulin.
Once every 2 days, the culture medium was exchanged with a fresh one, and culturing was performed from Day 1 to Day 8. Thereafter, from Day 9 to Day 14, the cells were cultured in a medium free of ALK5 inhibitor II or LY2157299. On day 14, the culture medium was removed by suction from each well, washed with PBS(−) and total RNA was extracted from the cells by using RNA easy Mini Kit manufactured by Qiagen. cDNA was synthesized from the RNA by using Rever Tra Ace qPCR RT Master Mix. This cDNA was admixed with Real-time PCR Master Mix, primers specific to UCP-1 gene, CIDEA gene or β actin gene and Taqman probe. qRT-PCR was performed using AB7300 Real-time PCR system. The mRNA level of UCP1 gene and CIDEA gene was quantified as a ratio to β-actin gene mRNA level, and calculated with the value of fibroblast cultured in the general medium as 1.

[6] = test system: human dermal fibroblasts; HDFs; test: Bodipy staining quantification in WA medium, four inhibitors, Example 49; settings: 16 μM compound and 1 μM Rosiglitazone, day 12, FIG. 53
[7] = test system: Human normal skin-derived fibroblasts (HDFs); test: Real-time RT-PCR of UCP1, four inhibitors, Example 39
Procedure: The addition concentration of the compound was 4 μM, 8 μM, 12 μM or 16 μM. […] Thereafter, in Day 9-Day 14, culturing was performed in a medium free of ALK5 inhibitor II, LY2157299, SB431542, D4476.

[8] = test system: Human normal skin-derived fibroblasts (HDFs); test: Real-time RT-PCR of UCP1, CIDEA, KCNK3, Example 41; settings: ALK5 inhibitor II or LY2157299 (8 μM), Day 1 to Day 8; day 14; FIG. 45
Procedure: Human normal skin-derived fibroblasts (HDFs) were suspended in a general medium (DMEM added with 10% FBS). […] The adipocyte induction medium is DMEM added with 1 nM T3, 1 μM Rosiglitazone, 0.5 mM 3-isobutyl-1-methylxanthine (IBMX), 0.5 μM dexamethasone, 1 μg/mL Insulin and 10% FBS. Once every 2 days, the culture medium was exchanged with a fresh one, and culturing was performed from Day 1 to Day 8. Thereafter, from Day 9 to Day 14, the cells were cultured in an adipocyte induction medium free of ALK5 inhibitor II or LY2157299. On day 14, the culture medium was removed by suction from each well, washed with PBS(−) and total RNA was extracted from the cells by using RNA easy Mini Kit manufactured by Qiagen. cDNA was synthesized from the RNA by using Rever Tra Ace qPCR RT Master Mix. This cDNA was admixed with Real-time PCR Master Mix, primers specific to UCP-1 gene, CIDEA gene, KCNK3 gene or β actin gene and Taqman probe. qRT-PCR was performed using AB7300 Real-time PCR system. The mRNA level of UCP1 gene was quantified as a ratio to β-actin gene mRNA, and calculated with the value of fibroblast cultured in the general medium as 1.

Row | Structure (SMILES) | conversion of fibroblast to chondrocyte, Sox9 and Aggrican mRNA [1] | conversion of human fibroblast to white adipocyte (mRNA markers) [2] | lipid droplets stained with Bodipy, inhibitor alone ([3]; WA medium added with 16 μM compound alone) | lipid droplets stained with Bodipy / conversion to white adipocyte, inhibitor and Rosiglitazone ([3]; WA medium added with 16 μM compound and 1 μM Rosiglitazone) | conversion of fibroblast to brown adipocyte, UCP1 protein ([4]; ALK5 inhibitor II 4 μM) | staining with anti-UCP1 antibody ([4]; groups 3-6: ALK5 inhibitor II 4 μM) | conversion of epidermal keratinocyte to brown adipocyte, UCP1 and CIDEA mRNA [5] | fat accumulation (BODIPY) / conversion to white adipocyte, co-addition of Rosiglitazone [6] | conversion of fibroblast to brown adipocyte, UCP1 mRNA ([7]; 4 μM, 8 μM, 12 μM or 16 μM in adipocyte induction medium Day 1 to Day 8, then compound-free to day 14, FIG. 43) | efficiency in converting fibroblast to brown adipocyte (summary statement) ([7]; description, conditions not given) | conversion of fibroblast to brown adipocyte, UCP1, CIDEA and KCNK3 mRNA [8]
1 | Cc1ccc(-c2cn3c4c(sc3n2)CCCC4)cc1 [Cyclic Pifithrin-α] | does not promote conversion of fibroblast to chondrocyte |  |  |  |  |  |  |  |  |  | 
2 | Cc1cccc(-c2nn3c(c2-c2ccnc4ccc(C(N)=O)cc24)CCC3)n1 [LY2157299, 4-[5,6-dihydro-2-(6-methyl-2-pyridinyl)-4H-pyrrolo[1,2-b]pyrazol-3-yl]-6-quinolinecarboxamide] |  | converted human fibroblast to white adipocyte | only a few cells contained lipid droplets stained with Bodipy | many cells were stained | converted fibroblast to brown adipocyte expressing UCP1 protein; also recorded: secondly | many cells were stained with anti-UCP1 antibody; also recorded: the second highest | converted normal human epidermal keratinocyte to brown adipocyte expressing UCP1 gene and CIDEA gene | more strongly induced fat accumulation than by the addition of Rosiglitazone alone | converted fibroblast to brown adipocyte strongly expressing UCP1 gene; also recorded: secondly | highly efficient in converting fibroblast to brown adipocyte | converted fibroblast to brown adipocyte expressing UCP1 gene, CIDEA gene and KCNK3 gene
